This is an account of results in patent US20200068887A1, “TREATMENT FOR REMOVING ECTOPARASITES FROM FISH” (priority 2016, published 2020).

What all share (type): in vivo
The subject of one data set is Lepeophtheirus salmonis. Description: Relative efficacy study (optimisation of treatment concentration). Particulars: for Parasite clearance: n=2, ±SEM. The method, then:
120 salmon fish (Salmo salar) were divided across five flow-through treatment tanks and acclimated for 24 hours prior to parasite challenge.
Egg strings removed from ovigerous female Lepeophtheirus salmonis were collected and cultured until infective copepodids were produced. The copepodids were then evenly distributed into five bottles containing sea water and stored at ˜10° C. overnight. In preparation for the challenge, water flows in the treatment tanks were stopped and light levels reduced. 650±20 copepodids (˜27 per host) were added to the static water and the tanks maintained in total darkness for 7 hours after which light levels were raised and the water flow resumed.
Fish were randomly divided into ten groups of ten fish and held in static ‘treatment buckets’ containing 30 L of water and high aeration as shown in Table 3.
Eight of the groups (3-10) were treated with the required concentrations of imidacloprid for 60 minutes: imidacloprid was dissolved in DMSO and added to ˜1L of tank water prior to addition to the treatment buckets. The remaining group and its replicate (1 & 2) were DMSO controls at 0.03%.
Experimental animals were monitored closely for adverse reactions and the status of the parasite infection. Where possible the time at which all parasites were thought to have detached was recorded. As treatments were performed in static systems, temperature and dissolved oxygen were regularly monitored throughout the procedure and aeration adjusted as required.
After the treatment period, the test animals were removed from the treatment solution and humanly euthanised. Each fish was weighed, measured, and its individual parasite burden assessed. The number of parasites in the treatment solution was also counted and qualitatively assessed for: sex and maturity, apparent signs of neonicotinoid poisoning, and/or potential recovery.
Logistic regression was used to compare parasite clearance after treatment with each of the concentration. Logistic regression analyses were performed using the glm function in R v.2.13.0 and assumed a binomial or quasi-binomial error distribution (determined through the comparison of the null deviance with the degrees of freedom).

The next data set concerns Atlantic salmon. As to the kind of experiment: Fish behaviour/appearance and mortality during bath treatment trial. The conditions noted are these: 20 ppm to 200 ppm, exposure 3 to 60 minutes. The method, then:
Fish behaviour/appearance was assessed in vivo during each test. Any changes in behaviour and/or appearance including mortality were recorded.

A further data set relates to fish. Description: Safety of imidacloprid treatment on fish. The procedure:
The safety of the imidacloprid treatment on fish was assessed. Fish held in a flow through tank containing 271.8 L of sea water were exposed to 65 ppm w/v of the active ingredient imidacloprid. 17.67 g of imidacloprid was dissolved in 100 ml of dimethyl sulfoxide (DMSO) and the solution was added to approximately 900 ml sea water and mixed. The flow on the through tank was disabled and the solution of imidacloprid was added.
The fish were exposed to 65 ppm imidacloprid in static water for 1 hour and observed for behavioural changes at 5-10 minute intervals. The fish were then held for a further 7 days before being terminated.

With `O=[N+]([O-])NC1=NCCN1Cc1ccc(Cl)nc1` [imidacloprid], the “parasites remaining attached to their hosts at sampling” value in the data set with Lepeophtheirus salmonis (10 mg/l, 60 min) worked out at 20%; in the data set with Lepeophtheirus salmonis (15 mg/l, 60 min), 8%; in the data set with Lepeophtheirus salmonis (20 mg/l, 60 min) it was 8%; with Lepeophtheirus salmonis (25 mg/l, 60 min) it was 3%. Further, the Parasite clearance with Lepeophtheirus salmonis (10 mg/l, 60 min) worked out at 80±11%; with Lepeophtheirus salmonis (15 mg/l, 60 min) it was 92±4%; in the data set on Lepeophtheirus salmonis (20 mg/l, 60 min), 92±7%; with Lepeophtheirus salmonis (25 mg/l, 60 min) it was 97±3%. Besides, the parasite infection removed in the data set with Lepeophtheirus salmonis (all four dosages (10, 15, 20, 25 mg/l), 60 minute treatment) is 80-100%. Moreover, in the data set on Lepeophtheirus salmonis (range 10-25 mg/l, 60 min, no significant increase in efficacy above), the “optimum concentration within the range tested” value came to 15 mg/L. The “fish mortality in the trial” value with Atlantic salmon is listed as “No fish died in the trial”. For the same molecule, the “adverse reactions during monitoring after exposure” value with fish (65 ppm w/v for 1 hour, monitored a further 7 days) was “no adverse reactions being noted”. Moreover, the “external pathologies on termination” value in the data set on fish (65 ppm w/v for 1 hour, terminated after 7 days) is listed as “no external pathologies were noted”. Also, the “changes in fish behaviour during the exposure period” value in the data set with fish (65 ppm w/v, static water, 1 hour) is listed as “No observable changes in fish behaviour”.
